Test results reported in patent US11369616B2, “Drug combination and its use in therapy” (Proximagen, LLC, priority 2016, dated 2022).

Assays:
Assay type in all cases: in vivo, mice
EMT6 = assay: Syngeneic subcutaneous tumour growth inhibition, EMT6 (Study 2); settings: Breast, EMT6, SDF-1 42 FPKM; 641 50 mg/kg p.o. 5 days out of 7; anti-PD1 10 mg/kg i.p. twice weekly for 3 weeks; vs vehicle group
Protocol: (§1) Four syngeneic cell lines (EMT-6, H22, CT26, B16F10small) were cultured and when in exponential growth were inoculated in mice subcutaneously with tumour cells in 0.1 mL of PBS for tumour development. After the mean tumour size reached approximately 80-120 mm^3 the mice were treated with anti-PD1 antibody (clone RMP1-14) (10 mg/kg i.p. twice weekly for 3 weeks) or 6-{4-[1-(Propan-2-yl)piperidin-4-yl]-1,4-diazepan-1-yl}-N-(pyridin-4-yl)pyridine-2-carboxamide (50 mg/kg p.o. 5 days out of 7), or a combination of the two treatments. Tumour volumes were measured twice weekly at least in two dimensions using a caliper, and the volume expressed in mm^3 using the formula: V=0.5 a×b^2 where a and b are the long and short diameters of the tumour, respectively. Tumour growth was measured and inhibition of tumour growth reported in comparison to a vehicle treated group. All groups contained 8 mice. If the tumours in a group reached an average volume of 2000 mm^3, the experiment was terminated.
(§2) SDF-1 levels were measured by RNA sequencing and are expressed as fragments read per million mapped reads per kilobase of transcript (FPKM). FPKM is normalised to all the fragments read and to the length of the genes, and so is in effect a ratio of the number of SDF-1 reads to all the other genes read multiplied by one million.

H22 = assay: Syngeneic subcutaneous tumour growth inhibition, H22 (Study 2); settings: Liver, H22, SDF-1 26 FPKM; 641 50 mg/kg p.o. 5 days out of 7; anti-PD1 10 mg/kg i.p. twice weekly for 3 weeks; vs vehicle group
Protocol: as §1, §2

CT26 = assay: Syngeneic subcutaneous tumour growth inhibition, CT26 (Study 2); settings: Colorectal, CT26, SDF-1 17 FPKM; 641 50 mg/kg p.o. 5 days out of 7; anti-PD1 10 mg/kg i.p. twice weekly for 3 weeks; vs vehicle group
Protocol: as §1, §2

B16F10 small = assay: Syngeneic subcutaneous tumour growth inhibition, B16F10 small (Study 2); settings: Melanoma, SDF-1 4 FPKM, 641 50 mg/kg p.o. 5 days out of 7, anti-PD1 10 mg/kg i.p. twice weekly for 3 weeks, vs vehicle group
Protocol: as §1, §2

CC(C)N1CCC(N2CCCN(c3cccc(C(=O)Nc4ccncc4)n3)CC2)CC1 [compound 641, 6-{4-[1-(Propan-2-yl)piperidin-4-yl]-1,4-diazepan-1-yl}-N-(pyridin-4-yl)pyridine-2-carboxamide]
% inhibition of tumour growth relative to control (EMT6): 79.8%
% inhibition of tumour growth relative to control (H22): 20.1%
% inhibition of tumour growth relative to control (CT26): 32.1%
% inhibition of tumour growth relative to control (B16F10 small): 0%
